Legend:
HDAC10 = HDAC10 (Homo sapiens (Human), UniProt Q969S8); experiment: Enzymatic screening, HDAC10 inhibition; assay type: biochemical
Experimental: (§1) For each test compound, 100× concentrated DMSO solutions at 8 doses were prepared and then diluted in assay buffer (25 mM Tris-HCl, pH 8, 130 mM NaCl, 0.05% Tween-20, 10% Glycerol) to obtain 5× concentrated solutions in relation to the final concentrations (typical final concentration range—6.4-200000 nM or 0.18-50000 nM, final DMSO content—1%). Then 10 μL solution of each test compound concentration were placed on a 96-well plate in triplicate and 15 μL of 3.33× concentrated enzyme solution in the assay buffer containing 3.33× concentrated BSA (final BSA concentration—2 mg/mL for HDAC4, HDAC5 and HDAC9 or 1 mg/mL for other isoforms) and in the case of HDAC6-3.33× concentrated TCEP (final TCEP concentration—200 μM) were added to each well. After a period of preincubation (incubation times and temperatures vary for different isoforms and are shown in table 1) 25 μL of solution containing the substrate were added. As substrate, FLUOR DE LYS® deacetylase substrate (Enzo Life Sciences, cat: BML-KI104, FdL), FLUOR DE LYS®-Green substrate (Enzo Life Sciences, cat: BML-KI572, FdL_G) or Boc-Lys(Tfa)-AMC (Bachem, cat: 4060676.005, Tfal)—2× concentrated solution in assay buffer were used. Following a reaction period (reaction times and temperatures vary for different isoforms and are reported in Table 1), 50 μL of the development solution consisting of concentrate FLUOR DE LYS® developer I (Enzo Life Sciences, ca: BML-KI105), diluted 200 times in buffer (50 mM Tris-HCl, pH 8, 137 mM NaCl, 2.7 mM KCl, 1 mM MgCl2) plus 2 μM TSA was added and, after 25 minutes at room temperature in the dark, using the Victor 1420 Multilabel Counter Perkin Elmer Wallac instrument, the fluorescence reading was carried out.

[1] = Stability to Phase I metabolism in rat S9 liver fraction; settings: after 90 minutes, 37° C.
HDAC8 = HDAC8 (Homo sapiens (Human), UniProt Q9BY41); experiment: Enzymatic screening, HDAC8 inhibition; assay type: biochemical
Chain of HDAC8 (Q9BY41 whole entry): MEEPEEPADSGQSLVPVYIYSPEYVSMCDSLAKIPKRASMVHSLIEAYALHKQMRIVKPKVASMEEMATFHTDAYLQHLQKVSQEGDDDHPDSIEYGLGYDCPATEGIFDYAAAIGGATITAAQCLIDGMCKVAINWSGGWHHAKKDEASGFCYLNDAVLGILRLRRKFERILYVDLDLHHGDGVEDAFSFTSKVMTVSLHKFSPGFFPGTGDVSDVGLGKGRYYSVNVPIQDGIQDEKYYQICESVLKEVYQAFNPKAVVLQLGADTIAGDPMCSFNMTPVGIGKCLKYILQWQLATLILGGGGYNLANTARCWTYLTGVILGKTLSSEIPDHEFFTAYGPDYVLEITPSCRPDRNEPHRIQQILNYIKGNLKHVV
Experimental: as §1

HDAC7 = HDAC7 (Homo sapiens (Human), UniProt Q8WUI4); experiment: Enzymatic screening, HDAC7 inhibition; assay type: biochemical
Experimental: as §1

[2] = Stability to Phase I metabolism in human S9 liver fraction; settings: after 90 minutes, 37° C.
HDAC9 = HDAC9 (Homo sapiens (Human), UniProt Q9UKV0); experiment: Enzymatic screening, HDAC9 inhibition; assay type: biochemical
Chain of HDAC9 (Q9UKV0 whole entry): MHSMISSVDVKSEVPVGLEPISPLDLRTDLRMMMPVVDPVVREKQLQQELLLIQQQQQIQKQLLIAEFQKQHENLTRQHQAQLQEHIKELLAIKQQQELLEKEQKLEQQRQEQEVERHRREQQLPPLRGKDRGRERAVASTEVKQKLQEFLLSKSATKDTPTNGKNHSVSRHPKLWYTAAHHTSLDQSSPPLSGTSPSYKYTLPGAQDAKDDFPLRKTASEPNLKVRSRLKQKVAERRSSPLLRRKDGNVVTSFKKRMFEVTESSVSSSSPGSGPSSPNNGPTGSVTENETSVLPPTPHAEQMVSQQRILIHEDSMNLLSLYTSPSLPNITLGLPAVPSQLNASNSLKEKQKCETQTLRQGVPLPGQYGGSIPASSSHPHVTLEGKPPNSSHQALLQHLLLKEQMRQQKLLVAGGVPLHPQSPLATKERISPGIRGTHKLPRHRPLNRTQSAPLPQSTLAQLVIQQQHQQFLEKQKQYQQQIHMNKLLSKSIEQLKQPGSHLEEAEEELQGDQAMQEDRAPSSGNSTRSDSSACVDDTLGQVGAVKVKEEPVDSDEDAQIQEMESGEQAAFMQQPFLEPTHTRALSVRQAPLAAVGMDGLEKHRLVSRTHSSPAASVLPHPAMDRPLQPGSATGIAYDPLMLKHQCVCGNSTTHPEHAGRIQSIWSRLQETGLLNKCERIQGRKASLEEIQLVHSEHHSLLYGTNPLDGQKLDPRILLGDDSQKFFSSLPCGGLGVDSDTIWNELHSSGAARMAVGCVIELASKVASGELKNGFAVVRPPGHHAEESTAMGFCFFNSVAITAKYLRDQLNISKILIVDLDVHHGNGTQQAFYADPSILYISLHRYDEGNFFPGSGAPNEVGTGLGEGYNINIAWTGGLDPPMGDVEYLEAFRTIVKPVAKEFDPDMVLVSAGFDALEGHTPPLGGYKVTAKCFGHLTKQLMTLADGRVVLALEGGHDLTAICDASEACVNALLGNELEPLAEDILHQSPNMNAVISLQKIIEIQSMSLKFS
Experimental: as §1

[3] = system: α-tubulin acetylation in 697 cell line; experiment: In vitro α-tubulin acetylation in 697 cell line (ELISA); assay type: cell-based; settings: 16 hours, read-out: fold increase @ 1 uM TubAc (ratio of acetylated tubulin and total tubulin towards control)
Experimental: The in vitro α-tubulin acetylation determination was evaluated on B 697 promyelocytic cell line.
The test molecules were diluted from 20 mM stock solution in DMSO with RPMI 10% FCS+0.01% DMSO medium at 20× concentration compared to the final concentration, added to the cells (15×10^6 cells in a total volume of 30 mL in RPMI medium 10% FCS+0.01% DMSO) to obtain the final concentrations of 1000, 333, 111, 37 nM and incubated at 37° C., 5% CO2 for 16 hours.
At the end of the incubation period, 5×10^6 cells were taken from each sample, centrifuged for 5 minutes at 1100 rpm and washed in 0.9% NaCl at 4° C. The resulting pellet was lysed by treating at 4° C. for 30 minutes with 150 μl of Complete Lysis-M buffer containing protease inhibitors (Complete Lysis-M Roche+Complete Tablets, Mini Easypack, cat: 4719956001) and phosphatase inhibitor cocktails (PhosStop Easypack, Roche, cat: 4906837001), then centrifuged 10 minutes at 14,000 rpm (20817×g). 0.3 μg of supernatant (total protein extract) were diluted in 100 μl of 1×PBS and immobilized in Maxisorp F96 NUN-IMMUNO Plate (Nunc MaxiSorp flat-bottom, Nunc, cat: 442404) at room temperature overnight. Plates were washed twice with Wash Buffer (PBS1×+0.005% tween 20) and saturated for 1 hour at room temperature with 300 μL of 1×PBS containing 10% FCS. After washing twice with Wash Buffer, the plates were incubated for two hours at room temperature in the presence of anti-acetylated-α-tubulin antibody (Monoclonal Anti-acetylated-tubulin clone 6-11B-1, mouse ascites fluid, Sigma, cat: T6793), 100 μl/well diluted 1:1000 in 1×PBS containing 10% FCS) or with total anti-α-tubulin antibody (Monoclonal Anti-alpha-tubulin produced in mouse, Sigma, cat: T6074). Following washing of the pates 5 times with Wash Buffer the secondary antibody conjugated with the enzyme HRP (Goat anti-Mouse IgG, IgM, IgA (H+L), Thermo Fisher Scientific, cat: A10668), diluted 1:1000 in 1×PBS+10% FBS was added at the volume of 100 μl/well.
After washing 4 times, 100 μl/well of TMB substrate kit was added for 10 minutes at room temperature in the dark. The reaction was stopped by adding 50 μl of 2N H2SO4. The plates were read at Multiskan Spectrum spectrophotometer at a wavelength of 450 nm.
The degree of acetylation was calculated by dividing the absorbance obtained for acetylated α-tubulin by the absorbance of total tubulin.
The results of tubulin acetylation, expressed as fold increase of ratio of acetylated α-tubulin/total α-tubulin, of each sample relative to the control sample (untreated) are summarized in table 6.

[4] = Stability in human plasma; settings: after 4 hours, 37° C.
Experimental: In order to evaluate the stability to circulating enzymes, test compounds were incubated in human and rat plasma at 37° C. in a thermostated oscillating bath. Each test compound was incubated at μM concentration (50 μM when the samples were analysed by UV/HPLC, 1 or 2 μM when the samples were analysed by LC-MS/MS) for 0, 15, 30 minutes and 1, 2 and 4 hours. The reaction was stopped placing samples on ice bath and adding acidified acetonitrile. After centrifugation (10 minutes at 14000 rpm) an aliquot of the supernatant was diluted with water, filtered with 0.45 μm regenerated cellulose syringe filters and injected in HPLC-UV or in LC-MS/MS. The percentage of the remaining amount at the various incubation times with respect to the initial amount were calculated. The half-life in plasma was also calculated.

recombinant human HDAC6 = recombinant human HDAC6 (Homo sapiens (Human), UniProt Q9UBN7); experiment: Enzymatic screening, HDAC6 inhibition (fluorogenic FdL_G substrate); assay type: biochemical
Method in brief: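 Enzyme was preincubated with compound (8 doses, triplicate, 1% DMSO) in 25 mM Tris-HCl pH 8, 130 mM NaCl, 0.05% Tween-20, 10% glycerol, with BSA. A FLUOR DE LYS-Green substrate was then added, and fluorescence was read after developer plus 2 μM TSA.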

HDAC2 = HDAC2 (Homo sapiens (Human), UniProt Q92769); experiment: Enzymatic screening, HDAC2 inhibition; assay type: biochemical
Chain of HDAC2 (Q92769 whole entry): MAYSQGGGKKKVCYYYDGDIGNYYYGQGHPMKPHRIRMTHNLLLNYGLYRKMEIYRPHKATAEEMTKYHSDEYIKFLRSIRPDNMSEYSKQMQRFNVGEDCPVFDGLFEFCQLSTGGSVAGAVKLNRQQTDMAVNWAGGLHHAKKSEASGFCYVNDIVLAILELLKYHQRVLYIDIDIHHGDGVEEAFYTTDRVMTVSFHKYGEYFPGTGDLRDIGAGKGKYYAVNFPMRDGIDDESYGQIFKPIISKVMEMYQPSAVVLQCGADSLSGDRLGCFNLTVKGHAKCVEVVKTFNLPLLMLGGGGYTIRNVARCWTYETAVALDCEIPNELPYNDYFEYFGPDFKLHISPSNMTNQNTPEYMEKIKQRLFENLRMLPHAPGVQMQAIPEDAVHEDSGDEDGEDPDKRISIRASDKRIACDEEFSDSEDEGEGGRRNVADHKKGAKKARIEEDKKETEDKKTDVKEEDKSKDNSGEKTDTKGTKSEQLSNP
Experimental: as §1

recombinant human HDAC1 = recombinant human HDAC1 (Homo sapiens (Human), UniProt Q13547); experiment: Enzymatic screening, HDAC1 inhibition (fluorogenic FdL_G substrate); assay type: biochemical
Chain of recombinant human HDAC1 (Q13547 whole entry): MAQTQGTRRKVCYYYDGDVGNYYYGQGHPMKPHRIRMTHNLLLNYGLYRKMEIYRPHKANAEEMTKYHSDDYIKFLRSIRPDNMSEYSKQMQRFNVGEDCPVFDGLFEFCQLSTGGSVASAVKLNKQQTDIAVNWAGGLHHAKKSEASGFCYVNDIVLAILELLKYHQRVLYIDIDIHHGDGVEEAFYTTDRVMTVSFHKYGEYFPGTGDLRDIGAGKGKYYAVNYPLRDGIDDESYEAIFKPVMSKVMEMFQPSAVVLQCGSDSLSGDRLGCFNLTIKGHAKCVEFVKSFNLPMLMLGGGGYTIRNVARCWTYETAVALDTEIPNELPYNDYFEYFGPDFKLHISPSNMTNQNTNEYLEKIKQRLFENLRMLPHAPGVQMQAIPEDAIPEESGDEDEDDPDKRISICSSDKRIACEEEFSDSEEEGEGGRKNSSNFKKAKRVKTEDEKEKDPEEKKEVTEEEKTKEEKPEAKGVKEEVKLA
Method in brief: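 Recombinant human HDAC1 inhibition was measured fluorometrically using the FLUOR DE LYS-Green (FdL_G) substrate. Compounds at 8 doses (1% DMSO final) in Tris-HCl pH 8 buffer with NaCl, Tween-20 and glycerol were preincubated in triplicate with enzyme and 1 mg/mL BSA, then given substrate. Developer I plus 2 μM TSA was added, and fluorescence read after 25 minutes in the dark.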

HDAC4 = HDAC4 (Homo sapiens (Human), UniProt P56524); experiment: Enzymatic screening, HDAC4 inhibition; assay type: biochemical
Chain of HDAC4 (P56524 whole entry): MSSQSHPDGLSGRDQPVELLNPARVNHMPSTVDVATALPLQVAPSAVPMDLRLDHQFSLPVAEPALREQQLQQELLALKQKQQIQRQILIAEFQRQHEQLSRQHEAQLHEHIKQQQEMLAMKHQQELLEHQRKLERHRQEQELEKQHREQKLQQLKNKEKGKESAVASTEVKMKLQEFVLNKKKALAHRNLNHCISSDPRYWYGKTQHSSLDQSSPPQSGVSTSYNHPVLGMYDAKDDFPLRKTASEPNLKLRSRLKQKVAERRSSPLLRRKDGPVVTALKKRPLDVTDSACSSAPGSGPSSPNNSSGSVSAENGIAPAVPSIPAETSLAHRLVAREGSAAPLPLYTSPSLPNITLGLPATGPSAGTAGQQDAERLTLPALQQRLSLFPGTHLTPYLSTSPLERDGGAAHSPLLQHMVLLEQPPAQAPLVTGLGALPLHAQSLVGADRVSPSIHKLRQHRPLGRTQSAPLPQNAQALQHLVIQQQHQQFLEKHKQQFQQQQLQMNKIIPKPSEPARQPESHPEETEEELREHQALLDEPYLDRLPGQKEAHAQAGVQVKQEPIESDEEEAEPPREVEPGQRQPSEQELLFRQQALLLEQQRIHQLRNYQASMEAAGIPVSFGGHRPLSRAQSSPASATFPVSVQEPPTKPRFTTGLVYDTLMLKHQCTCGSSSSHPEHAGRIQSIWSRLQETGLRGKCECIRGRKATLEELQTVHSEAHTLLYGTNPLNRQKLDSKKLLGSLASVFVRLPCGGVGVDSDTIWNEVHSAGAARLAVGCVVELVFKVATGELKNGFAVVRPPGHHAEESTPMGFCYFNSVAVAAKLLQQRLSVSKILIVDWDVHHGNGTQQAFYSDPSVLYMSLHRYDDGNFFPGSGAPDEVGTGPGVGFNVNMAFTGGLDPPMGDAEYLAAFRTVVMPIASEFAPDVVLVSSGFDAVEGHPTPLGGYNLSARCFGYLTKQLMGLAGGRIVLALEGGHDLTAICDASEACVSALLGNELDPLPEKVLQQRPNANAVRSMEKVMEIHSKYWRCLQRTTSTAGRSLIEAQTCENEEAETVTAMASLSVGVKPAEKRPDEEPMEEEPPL
Experimental: as §1

Stability in rat plasma = settings: after 4 hours, 37° C.
HDAC5 = HDAC5 (Homo sapiens (Human), UniProt Q9UQL6); experiment: Enzymatic screening, HDAC5 inhibition; assay type: biochemical
Chain of HDAC5 (Q9UQL6 whole entry): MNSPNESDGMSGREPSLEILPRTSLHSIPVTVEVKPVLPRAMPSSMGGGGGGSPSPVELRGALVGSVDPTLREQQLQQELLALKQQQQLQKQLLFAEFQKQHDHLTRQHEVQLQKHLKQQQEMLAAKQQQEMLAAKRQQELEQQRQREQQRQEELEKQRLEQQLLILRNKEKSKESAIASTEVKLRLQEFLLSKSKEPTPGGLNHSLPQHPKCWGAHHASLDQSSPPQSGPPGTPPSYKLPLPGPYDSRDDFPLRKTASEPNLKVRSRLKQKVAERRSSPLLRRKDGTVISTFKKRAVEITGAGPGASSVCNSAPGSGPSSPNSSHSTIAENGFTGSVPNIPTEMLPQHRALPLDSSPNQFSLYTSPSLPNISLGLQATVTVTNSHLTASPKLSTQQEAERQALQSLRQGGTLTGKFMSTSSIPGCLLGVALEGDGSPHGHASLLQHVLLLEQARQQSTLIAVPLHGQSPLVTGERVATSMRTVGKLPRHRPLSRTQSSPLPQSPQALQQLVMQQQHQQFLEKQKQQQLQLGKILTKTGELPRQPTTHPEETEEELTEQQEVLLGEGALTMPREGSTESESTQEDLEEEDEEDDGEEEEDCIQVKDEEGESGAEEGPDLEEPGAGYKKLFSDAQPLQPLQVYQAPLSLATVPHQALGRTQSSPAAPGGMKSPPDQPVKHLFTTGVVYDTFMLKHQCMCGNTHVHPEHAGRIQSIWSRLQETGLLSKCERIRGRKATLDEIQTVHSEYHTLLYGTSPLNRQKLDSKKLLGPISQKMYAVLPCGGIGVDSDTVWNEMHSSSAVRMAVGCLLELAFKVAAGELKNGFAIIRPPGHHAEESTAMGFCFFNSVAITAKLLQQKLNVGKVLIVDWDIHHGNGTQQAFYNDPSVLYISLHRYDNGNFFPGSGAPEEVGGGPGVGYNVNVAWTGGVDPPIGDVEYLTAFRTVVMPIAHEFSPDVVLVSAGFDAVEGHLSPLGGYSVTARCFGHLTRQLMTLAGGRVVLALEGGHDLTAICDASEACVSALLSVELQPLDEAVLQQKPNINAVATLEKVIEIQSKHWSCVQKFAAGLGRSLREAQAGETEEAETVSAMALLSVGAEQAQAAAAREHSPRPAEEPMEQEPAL
Experimental: as §1

HDAC3 = HDAC3 (Homo sapiens (Human), UniProt O15379); experiment: Enzymatic screening, HDAC3 inhibition; assay type: biochemical
Experimental: as §1

HDAC11 = HDAC11 (Homo sapiens (Human), UniProt Q96DB2); experiment: Enzymatic screening, HDAC11 inhibition; assay type: biochemical
Chain of HDAC11 (Q96DB2 whole entry): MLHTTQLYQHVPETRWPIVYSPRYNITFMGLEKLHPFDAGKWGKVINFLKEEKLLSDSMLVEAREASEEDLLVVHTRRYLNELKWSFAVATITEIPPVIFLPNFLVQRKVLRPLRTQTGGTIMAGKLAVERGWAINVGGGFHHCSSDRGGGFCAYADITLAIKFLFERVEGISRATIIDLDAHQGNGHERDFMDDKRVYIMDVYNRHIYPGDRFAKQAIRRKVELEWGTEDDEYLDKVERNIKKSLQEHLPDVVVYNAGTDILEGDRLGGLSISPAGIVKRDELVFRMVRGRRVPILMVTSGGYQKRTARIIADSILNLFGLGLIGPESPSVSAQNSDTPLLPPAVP
Experimental: as §1

SMILES	IC50 (HDAC10) [µM]	residual percentage in RAT S9 FRACTION [1] [%]	IC50 (HDAC8) [µM]	IC50 (HDAC7) [µM]	residual percentage in HUMAN S9 FRACTION [2] [%]	IC50 (HDAC9) [µM]	residual percentage in HUMAN PLASMA [4] [%]	IC50 (recombinant human HDAC6) [µM]	IC50 (HDAC2) [µM]	IC50 (recombinant human HDAC1) [µM]	IC50 (HDAC4) [µM]	residual percentage in RAT PLASMA (Stability in rat plasma) [%]	IC50 (HDAC5) [µM]	IC50 (HDAC3) [µM]	IC50 (HDAC11) [µM]	fold induction at 1 µM [3]
Cn1c(N)nc2cc(-c3cn(Cc4ccc(-c5nnc(C(F)F)o5)cn4)nn3)ccc21 [Compd. 17, 5-(1-((5-(5-(difluoromethyl)-1,3,4-oxadiazol-2-yl)pyridin-2-yl)methyl)-1H-1,2,3-triazol-4-yl)-1-methyl-1H-benzo[d]imidazol-2-amine]	> 30	99	> 200	> 30	84	> 30	82	0.008	> 30	> 200	> 30	85	> 30	> 30	> 30	32
Cn1c(N)nc2cc(-c3cn(Cc4ccc(-c5nnc(C(F)F)o5)cc4)nn3)ccc21 [Compd. 23, 5-(1-(4-(5-(difluoromethyl)-1,3,4-oxadiazol-2-yl)benzyl)-1H-1,2,3-triazol-4-yl)-1-methyl-1H-benzo[d]imidazol-2-amine]	> 30	96	0.565	> 30	88	> 30	88	0.013	> 30	30.3	> 30	92	> 30	26.5	> 30	31
O=C(Nc1cc(-c2nnn(Cc3ccc(-c4nnc(C(F)F)o4)cn3)n2)ccc1O)N1CCOCC1 [compound 2, N-(5-(2-((5-(5-(difluoromethyl)-1,3,4-oxadiazol-2-yl)pyridin-2-yl)methyl)-2H-tetrazol-5-yl)-2-hydroxyphenyl)morpholine-4-carboxamide]	> 30	61	> 200	> 30	70	> 30	87	0.01	> 30	> 200	> 30	90	> 30	> 30	> 30	26

Further lines, with some results ahead:

IC50 (HDAC10) [µM]	residual percentage in RAT S9 FRACTION [1] [%]	IC50 (HDAC8) [µM]	IC50 (HDAC7) [µM]	residual percentage in HUMAN S9 FRACTION [2] [%]	IC50 (HDAC9) [µM]	residual percentage in HUMAN PLASMA [4] [%]	IC50 (recombinant human HDAC6) [µM]	IC50 (HDAC2) [µM]	IC50 (recombinant human HDAC1) [µM]	IC50 (HDAC4) [µM]	residual percentage in RAT PLASMA (Stability in rat plasma) [%]	IC50 (HDAC5) [µM]	IC50 (HDAC3) [µM]	IC50 (HDAC11) [µM]	SMILES	fold induction at 1 µM [3]
> 30	90	1.41	3.08	83	0.971	59	0.015	> 30	> 200	5.01	87	1.51	> 30	> 30	FC(F)c1nnc(-c2ccc(Cn3cc(-c4ccc5nc(Cl)[nH]c5c4)nn3)nc2)o1 [Compd. 9, 2-(6-((4-(2-chloro-1H-benzo[d]imidazol-6-yl)-1H-1,2,3-triazol-1-yl)methyl)pyridin-3-yl)-5-(difluoromethyl)-1,3,4-oxadiazole]	17
> 30	77	> 200	> 30	77	> 30	80	0.012	> 30	> 200	> 30	78	> 30	> 30	> 30	O=C1NCc2ccc(-c3nnn(Cc4ccc(-c5nnc(C(F)F)o5)cn4)n3)cc21 [compound 4, 6-(2-((5-(5-(difluoromethyl)-1,3,4-oxadiazol-2-yl)pyridin-2-yl)methyl)-2H-tetrazol-5-yl)isoindolin-1-one]	13
> 30	93	> 200	> 30	92	> 30	74	0.012	> 30	> 200	> 30	70	> 30	> 30	> 30	Nc1ccc(-c2cn(Cc3ccc(-c4nnc(C(F)F)o4)cn3)nn2)cn1 [compound 5, 5-(1-((5-(5-(difluoromethyl)-1,3,4-oxadiazol-2-yl)pyridin-2-yl)methyl)-1H-1,2,3-triazol-4-yl)pyridin-2-amine]	19

From US20230286970A1, “NOVEL OXADIAZOLE-BASED SELECTIVE HDAC6 INHIBITORS” (ITALFARMACO S.P.A., priority 2020, published 2023)
